# Assay results published in patent US20180206495A1, “SUBSTITUTED ARYL AND HETEROARYL CARBOXYLIC ACID HYDRAZIDES OR SALTS THEREOF AND USE THEREOF TO INCREASE STRESS TOLERANCE IN PLANTS” (BAYER CROPSCIENCE AKTIENGESELLSCHAFT, priority 2015, published 2018).
# How the values were obtained:
# Brassica napus = test: In vivo analyses Part B: drought stress, spray application, appearance vs stressed control in categories, Brassica napus; set-up: key: 0: no positive effect; +: slight positive effect; ++: clear positive effect; +++: strong positive effect
# Description: (§1) Seeds of monocotyledonous and dicotyledonous crop plants were sown in sandy loam in plastic pots, covered with soil or sand and cultivated in a greenhouse under good growth conditions. The test plants are treated at the early leaf stage (BBCH10-BBCH13). To assure uniform water supply before commencement of stress, the potted plants were supplied with water by dam irrigation prior to substance application. The inventive compounds were first formulated as wettable powders (WP) or dissolved in a solvent mixture. The further dilution was effected with water supplemented with 0.2% wetting agent (e.g. agrotin). The finished spray liquor was sprayed onto the green parts of the plant at an equivalent water application rate of 600 l/ha. Substance application was followed immediately by stress treatment of the plants. Drought stress was induced by gradual drying out under the following conditions: “Day”: 14 hours with illumination at ˜26-30° C. “Night”: 10 hours without illumination at ˜18-20° C. The duration of the respective stress phases was guided mainly by the condition of the stressed control plants. It was ended (by re-irrigating and transfer to a greenhouse with good growth conditions) as soon as irreversible damage was observed on the stressed control plants. The end of the stress phase was followed by an about 4-7-day recovery phase, during which the plants were once again kept under good growth conditions in a greenhouse. The duration of the recovery phase was guided mainly by when the trial plants had attained a state which enabled visual scoring of potential effects, and was therefore variable. Once this juncture had been reached, the appearance of the plants treated with test substances was recorded in comparison to the stressed control plants by the following categories: • 0 no positive effect • + slight positive effect • ++ clear positive effect • +++ strong positive effect In order to rule out any influence on the effects observed by any fungicidal or insecticidal action of the test compounds, it was additionally ensured that the tests proceeded without fungal infection or insect infestation. The values reported in tables B-1 and B-2 below are mean values of the results from at least three repeats. Effects of selected compounds of the general formula (I) under drought stress according to the following tables B-1 and B-2: […]
# Triticum aestivum = test: In vivo analyses Part B: drought stress, spray application, appearance vs stressed control in categories, Triticum aestivum; set-up: key: 0: no positive effect; +: slight positive effect; ++: clear positive effect; +++: strong positive effect
# Description: as §1
Structure (SMILES),Effect (BRSNS) (Brassica napus; dosage 250 g/ha),Effect (TRZAS) (Triticum aestivum; dosage 250 g/ha),other results
CN(C)N(Cc1ccc(Cl)nc1)C(=O)c1ccc(C(F)F)nc1 [B6-94],+,+,
CN(C)N(Cc1ccc(Cl)nc1)C(=O)c1cnccc1C(F)(F)F [B1-94],,+,
CN(C)N(Cc1c(Cl)cc(Cl)cc1Cl)C(=O)c1cnccc1C(F)(F)F [B1-10],+++,,
CN(C)N(Cc1cccc(C#N)c1)C(=O)c1ccccc1C(F)(F)F [A1-62],,,Effect (BRSNS) (Brassica napus; dosage 25 g/ha): ++
CN(C)N(Cc1ccccc1C(F)(F)F)C(=O)c1ccccc1Cl [A10-81],,+,
CN(C)N(Cc1ccc(Cl)cc1Cl)C(=O)c1cnccc1C(F)(F)F [B1-5],+++,,
CN(C)N(Cc1ccc(C(F)(F)F)cc1Cl)C(=O)c1ccc(F)cc1C(F)(F)F [A14-91],+,,Effect (TRZAS) (Triticum aestivum; dosage 25 g/ha): +
CN(C)N(Cc1ccc(Cl)nc1)C(=O)c1ccccc1Cl [A10-94],+,,
CN(C)N(Cc1ccc(C#N)cc1)C(=O)c1cnccc1C(F)(F)F [B1-63],+++,,
CN(C)N(Cc1ccccc1C(F)(F)F)C(=O)c1ccccc1C(F)(F)F [A1-81],,+,Effect (BRSNS) (Brassica napus; dosage 25 g/ha): +
"CCN(CC)N(Cc1cccc(Cl)c1Cl)C(=O)c1ccccc1C(F)(F)F [A2-4, N-(2,3-Dichlorobenzyl)-N′,N′-diethyl-2-(trifluoromethyl)benzohydrazide]",,+,
CN(C)N(Cc1c(F)cccc1F)C(=O)c1ccccc1C(F)(F)F [A1-17],,,Effect (BRSNS) (Brassica napus; dosage 25 g/ha): ++
CN(C)N(Cc1ncc(C(F)(F)F)cc1Cl)C(=O)c1ccc(Cl)cc1Cl [A12-36],,,Effect (BRSNS) (Brassica napus; dosage 100 g/ha): +
CN(C)N(Cc1c(Cl)cccc1Cl)C(=O)c1ccccc1I [A36-7],,+,
Cc1ccc(C(=O)N(Cc2ccccc2C#N)N(C)C)c(C(F)(F)F)c1 [A50-61],,,Effect (BRSNS) (Brassica napus; dosage 25 g/ha): +
CCN(C)N(Cc1ccccc1C#N)C(=O)c1cnccc1C(F)(F)F [B17-61],+,,
COc1ccccc1C(=O)N(Cc1ccc(F)cc1F)N(C)C [A8-15],+,,Effect (TRZAS) (Triticum aestivum; dosage 25 g/ha): ++
CN(C)N(Cc1ccccn1)C(=O)c1ccc(C(F)F)nc1 [B6-21],,+,
CN(C)N(Cc1cccnc1C#N)C(=O)c1ccccc1I [A36-679],+,+,
CN(C)N(Cc1ccccc1C#N)C(=O)c1ccc(C(F)(F)F)nc1 [B5-61],,,Effect (BRSNS) (Brassica napus; dosage 25 g/ha): +; Effect (TRZAS) (Triticum aestivum; dosage 25 g/ha): +
COC(=O)c1ccccc1CN(C(=O)c1ccccc1C(F)(F)F)N(C)C [A1-603],++,,
CN(C)N(Cc1ccccc1Cl)C(=O)c1ccc(C(F)F)nc1 [B6-1],,,Effect (TRZAS) (Triticum aestivum; dosage 25 g/ha): ++
CN(C)N(Cc1ccccc1C#N)C(=O)c1cncnc1C(F)(F)Cl [E3-61],,+,
CN(C1CCCCC1)N(Cc1ccccc1Cl)C(=O)c1cnccc1C(F)(F)F [B18-1],,,Effect (TRZAS) (Triticum aestivum; dosage 25 g/ha): ++

Structure (SMILES),Effect (BRSNS) (Brassica napus; dosage 250 g/ha),Effect (TRZAS) (Triticum aestivum; dosage 250 g/ha),other results
CN(C)N(Cc1ccccn1)C(=O)c1cncnc1C(F)(F)F [E1-21],,,Effect (TRZAS) (Triticum aestivum; dosage 25 g/ha): +
CN(C)N(Cc1ccc(Cl)nc1Cl)C(=O)c1ccc(F)cc1C(F)(F)F [A14-99],+,,Effect (TRZAS) (Triticum aestivum; dosage 25 g/ha): +
CN(C)N(Cc1ccccc1C#N)C(=O)c1ccc(Cl)cc1C(F)(F)F [A51-61],,,Effect (BRSNS) (Brassica napus; dosage 25 g/ha): ++; Effect (TRZAS) (Triticum aestivum; dosage 25 g/ha): +
CN(C)N(Cc1ccc(Cl)nc1)C(=O)c1cncnc1C(F)(F)F [E1-94],,+,
CN(C)N(Cc1c(Cl)cc(Cl)cc1Cl)C(=O)c1ccccc1I [A36-10],,+,
CN(C)N(Cc1c(F)cccc1F)C(=O)c1ccccc1Cl [A10-17],+,,
CN(C)N(Cc1ccccc1C(F)(F)F)C(=O)c1ccccc1I [A36-81],,+,
CN(C1CCCCC1)N(Cc1ccccn1)C(=O)c1ccccc1C(F)(F)F [A47-21],,+,
CN(C)N(Cc1cccnc1C#N)C(=O)c1cnccc1C(F)(F)F [B1-679],++,,
CN(C)N(Cc1ncccn1)C(=O)c1ccccc1I [A36-27],+,,
CN(C)N(Cc1ccccn1)C(=O)c1ccc(C(F)(F)F)nc1 [B5-21],+,,
CN(C)N(Cc1ccc(C#N)cc1)C(=O)c1ccccc1I [A36-63],,+,
CN(C)N(Cc1c(Cl)cccc1Cl)C(=O)c1cnccc1C(F)(F)F [B1-7],+++,+,
CCN(C)N(Cc1ccccc1C#N)C(=O)c1ccccc1C(F)(F)F [A5-61],,+,
Cc1ccc(C(=O)N(Cc2nccc(Cl)c2Cl)N(C)C)c(C(F)(F)F)c1 [A50-40],,+,Effect (BRSNS) (Brassica napus; dosage 25 g/ha): ++
CN(C)N(Cc1c(F)cccc1F)C(=O)c1cnccc1C(F)(F)F [B1-17],++,+,
CN(C)N(Cc1cccc(Cl)c1)C(=O)c1ccccc1Cl [A10-2],,+,Effect (BRSNS) (Brassica napus; dosage 25 g/ha): ++
CN(C)N(Cc1nccc(Cl)c1Cl)C(=O)c1ccccc1I [A36-40],,+,
CN(C)N(Cc1ccc(Cl)nc1)C(=O)c1ccc(Cl)cc1Cl [A12-94],,+,Effect (BRSNS) (Brassica napus; dosage 25 g/ha): +
CN(C)N(Cc1ncc(C(F)(F)F)cc1Cl)C(=O)c1ccc(F)cc1F [A52-36],,+,Effect (BRSNS) (Brassica napus; dosage 25 g/ha): +++
CN(C)N(Cc1ccccc1C#N)C(=O)c1ccnnc1 [G1-61],,,Effect (BRSNS) (Brassica napus; dosage 100 g/ha): +; Effect (TRZAS) (Triticum aestivum; dosage 100 g/ha): +
CN(C)N(Cc1ccc(Cl)nc1)C(=O)c1ccc(C(F)(F)F)nc1 [B5-94],,,Effect (TRZAS) (Triticum aestivum; dosage 25 g/ha): +
CN(C)N(Cc1cccnc1C#N)C(=O)c1ccccc1Cl [A10-679],++,,
CN(C)N(Cc1ccc(Cl)cc1Cl)C(=O)c1ccc(F)cc1C(F)(F)F [A14-5],,,Effect (TRZAS) (Triticum aestivum; dosage 25 g/ha): +

Structure (SMILES),Effect (BRSNS) (Brassica napus; dosage 250 g/ha),Effect (TRZAS) (Triticum aestivum; dosage 250 g/ha),other results
CN(C)N(Cc1c(Cl)c(Cl)c(C(F)(F)F)c(Cl)c1Cl)C(=O)c1ccc(F)cc1C(F)(F)F [A14-680],++,,
CN(C)N(Cc1cc(Cl)c(Cl)cc1Cl)C(=O)c1ccc(F)cc1C(F)(F)F [A14-138],,,Effect (BRSNS) (Brassica napus; dosage 25 g/ha): +; Effect (TRZAS) (Triticum aestivum; dosage 25 g/ha): +
CCN(C)N(Cc1nccc(Cl)c1Cl)C(=O)c1ccccc1C(F)(F)F [A5-40],+,+,
CN(C)N(Cc1ccc(F)cc1F)C(=O)c1cnccc1C(F)(F)F [B1-15],+++,+,
CN(C)N(Cc1cccc(C#N)c1)C(=O)c1cnccc1C(F)(F)F [B1-62],++,+,
CN(C)N(Cc1nccc(Cl)c1Cl)C(=O)c1ccccc1Cl [A10-40],++,,
CN(C)N(Cc1nccc(Cl)c1Cl)C(=O)c1cnccc1C(F)(F)F [B1-40],+,,
CN(C)N(Cc1cccnc1C#N)C(=O)c1ccccc1C(F)(F)F [A1-679],,+,Effect (BRSNS) (Brassica napus; dosage 25 g/ha): +
CN(C1CCCCC1)N(Cc1ccccn1)C(=O)c1cnccc1C(F)(F)F [B18-21],,,Effect (TRZAS) (Triticum aestivum; dosage 25 g/ha): +
"Cc1ccc(C(=O)N(Cc2ncc(C(F)(F)F)cc2Cl)N(C)C)c(C(F)(F)F)c1 [A50-36, N-[3-Chloro-5-(trifluoromethyl)pyridin-2-yl-methyl]-N′,N′-dimethyl-2-(trifluoromethyl)-4-methylbenzohydrazide]",,,Effect (BRSNS) (Brassica napus; dosage 25 g/ha): +
CN(C)N(Cc1ccccc1Cl)C(=O)c1ccc(Cl)cc1C(F)(F)F [A51-1],,+,
CC(c1ccc(F)cc1)N(C(=O)c1ccccc1C(F)(F)F)N(C)C (centres unmarked) [A1-159],,+,
CN(C)N(Cc1ccc(C#N)cc1)C(=O)c1ccccc1C(F)(F)F [A1-63],+,,
CN(C)N(Cc1ccccc1Cl)C(=O)c1ccc(C(F)(F)F)nc1 [B5-1],,+,
CN(C)N(Cc1ncc(C(F)(F)F)cc1Cl)C(=O)c1ccc(C#N)cc1C(F)(F)F [A48-36],,,Effect (BRSNS) (Brassica napus; dosage 25 g/ha): ++
CN(C)N(Cc1ccccc1C#N)C(=O)c1cnccc1C(F)(F)F [B1-61],++,,
"CCN(CC)N(Cc1ccccn1)C(=O)c1cnccc1C(F)(F)F [B2-21, N′,N′-Diethyl-N-(pyridin-2-ylmethyl)-4-(trifluoromethyl)nicotinohydrazide]",,+,
COc1ccccc1C(=O)N(Cc1ccc(Cl)nc1)N(C)C [A8-94],,,Effect (TRZAS) (Triticum aestivum; dosage 25 g/ha): +
CN(C)N(Cc1ccccc1Cl)C(=O)c1ccccc1I [A36-1],+,,
COc1ccccc1C(=O)N(Cc1ncc(C(F)(F)F)cc1Cl)N(C)C [A8-36],,,Effect (TRZAS) (Triticum aestivum; dosage 25 g/ha): ++
CN(C)N(Cc1ncccn1)C(=O)c1ccccc1C(F)(F)F [A1-27],++,,
"CN(C)N(Cc1ccc(Cl)nc1)C(=O)c1ccccc1C(F)(F)F [A1-94, N-[(6-Chloropyridin-3-yl)methyl]-N′,N′-dimethyl-2-(trifluoromethyl)benzohydrazide]",,+,
CN(C)N(Cc1ccccc1C#N)C(=O)c1ccc(C(F)F)nc1 [B6-61],,+,
CCN(C)N(Cc1nccc(Cl)c1Cl)C(=O)c1cnccc1C(F)(F)F [B17-40],,+,
